Measurements: PMC10862732 (bioRxiv, 2024)

Tested on: T7 LysY/Iq E. coli
Assay type: cell-based
Details: 0 – 0.5 mM IPTG, 37 °C, 12 hours, OD600

For “RRIRFRPPYL•••G••PRFPPPFPIPRIPRIP [Tur1a]”, the “Host growth upon induction of AMP expression with IPTG (self-depletion)” value was “dramatically slowed growth”.
